{"source": "patent US6406900B1", "about": "“Flea protease proteins, nucleic acid molecules and uses thereof” (Heska Corporation, priority 1991, dated 2002)", "tested_on": "flea serine proteases", "assay": "in vitro inhibition of flea protease activity", "assay_type": "biochemical", "excerpt": "In one embodiment, a protease inhibitor that can be used in a composition of the present invention to treat an animal is identified by a method including the following steps: (a) identifying candidate (i.e., putative, possible) inhibitor compounds by testing the efficacy of one or more protease inhibitors (i) in vitro for their ability to inhibit flea protease activity and/or (ii) in a flea feeding assay for their ability to reduce the survival and/or fecundity of fleas by adding the inhibitors to the blood meal of a flea being maintained, for example, in a feeding system, such as that described by Wade et al., 1988, J. Med Entomol. 25, 186-190; and (b) testing the efficacy of the candidate inhibitor compounds in animals infested with fleas. […] Furthermore, candidate inhibitor compounds identified by the flea feeding assays can include not only desired compounds but also compounds that reduce the viability and/or fecundity of fleas due to general toxicity (e.g., affecting the mitochondria of fleas).", "data": [{"substance": "aprotinin", "values": [{"measurement": "inhibition of flea serine proteases in the presence of serum proteins", "setting": "in the presence of serum proteins, such as are found in the blood", "result": "does not work well"}, {"measurement": "inhibition of flea serine proteases", "setting": "in vitro", "result": "can inhibit at least some flea serine proteases in vitro"}]}]}
